This assay addresses Aβ1–40 fibrils (amyloid-β) (Homo sapiens, UniProt P05067). It is filed as binding.

Chain of Aβ1–40 fibrils (amyloid-β) (P05067 672-711): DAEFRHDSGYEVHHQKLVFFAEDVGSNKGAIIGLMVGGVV

Compound `COc1cc(/C=C/c2cc(C)c(O)c(C)c2)ccc1/C=C/c1ccc(C(=O)O)cc1` [compound 1, 4-((E)-4-((E)-4-hydroxy-3,5-dimethylstyryl)-2-methoxystyryl) benzoic acid] yielded a Ki of 0.0086 µM.

`COc1cc(/C=C/c2ccc(O)cc2)ccc1/C=C/c1ccc(O)cc1` [compound 2, methoxy-X04] registered a Ki of 0.0236 µM.

For the origin of these results see publication PMC8788879 (Nuclear medicine and biology, 2020).
